Data as given in patent US20240287043A1, “KETOAMIDE DERIVATIVE AND APPLICATION THEREOF” (GUANGDONG RAYNOVENT BIOTECH CO., LTD., priority 2021, published 2024).
Read-outs that look alike come from different tables or passages of the source.

Tests used:
HCoV OC43 = experiment: In vitro anti-coronavirus activity using a cytopathic model (CPE, CellTiter Glo); details: Betacoronavirus 1, OC43, MRC5, 120 h
[1] = Cytotoxicity assay in MRC5 cells without viral infection (CellTiter Glo); type: cell-based; details: human, no viral infection
From the text: The calculation formulas were as below: […]

in vivo = details: male, C57BL/6J, mouse
SARS-COV-2 Mpro = SARS-COV-2 Mpro (Severe acute respiratory syndrome coronavirus 2, UniProt P0DTD1); experiment: In vitro inhibitory activity against Mpro protease of novel coronavirus (fluorescence substrate assay); type: biochemical; details: 25 nM Mpro protein, 25 μM substrate
[2] = male, C57BL/6J, mouse, in vivo

## O=C(NC1CCCC1)C(=O)[C@H](C[C@@H]1CCNC1=O)NC(=O)[C@@H]1[C@H]2CCC[C@H]2CN1C(=O)[C@@H](NC(=O)C(F)(F)F)C1CCCCC1 [Compound 1]
HCoV OC43
  EC50: 259 nM
[1]
  CC50 at 5 days: > 10000 nM
In vivo; iv, 3 mg/kg
  AUC(0-t): 7.79 µM·h
  Vd: 1.38 L/kg
  clearance: 10.1 mL/min/kg
  concentration at 0.083 h: 6770 nM
  concentration at 0.25 h: 5530 nM
  concentration at 0.5 h: 3930 nM
  concentration at 1 h: 1960 nM
  concentration at 2 h: 867 nM
  concentration at 4 h: 293 nM
  concentration at 8 h: 89.7 nM
  concentration at 24 h: 6.59 nM
  half-life: 3.8 h
In vivo; po, 10 mg/kg
  AUC(0-t): 5.7 µM·h
  Cmax: 1290 nM
  Tmax: 2 h
  bioavailability: 22%
  concentration at 0.25 h: 533 nM
  concentration at 0.5 h: 706 nM
  concentration at 1 h: 952 nM
  concentration at 2 h: 1290 nM
  concentration at 4 h: 661 nM
  concentration at 6 h: 291 nM
  concentration at 8 h: 187 nM
  concentration at 24 h: 2.69 nM
  half-life: 2.63 h

## O=C(NCc1ccccc1)C(=O)[C@H](C[C@@H]1CCNC1=O)NC(=O)[C@@H]1[C@H]2CCC[C@H]2CN1C(=O)[C@@H](NC(=O)C(F)(F)F)C1CCCCC1 [Compound 2]
HCoV OC43
  EC50: 368 nM
SARS-COV-2 Mpro
  IC50: 11 nM
[1]
  CC50 at 5 days: > 10000 nM

## CC(C)(C)NC(=O)C(=O)[C@H](C[C@@H]1CCNC1=O)NC(=O)[C@@H]1[C@H]2CCC[C@H]2CN1C(=O)[C@@H](NC(=O)C(F)(F)F)C1CCCCC1 [Compound 3]
HCoV OC43
  EC50: 146 nM
SARS-COV-2 Mpro
  IC50: 25 nM
[1]
  CC50 at 5 days: > 10000 nM
In vivo; iv, 3 mg/kg
  AUC(0-t): 30.6 µM·h
In vivo; po, 10 mg/kg
  AUC(0-t): 33 µM·h
  Tmax: 1.5 h
  bioavailability: 32%
  half-life: 5.4 h
[2]; iv, 3 mg/kg
  Cl: 2.50 mL/min/kg
  T1/2: 6.24 h
  Vdss: 1.27 L/kg
[2]; po, 10 mg/kg
  Cmax: 4810 nM

## CC(C)(C)NC(=O)C(=O)[C@H](C[C@@H]1CCNC1=O)NC(=O)[C@@H]1[C@H]2CCC[C@H]2CN1C(=O)[C@@H](NC(=O)C(F)(F)F)C1CCC1 [Compound 4]
HCoV OC43
  EC50: 823 nM
SARS-COV-2 Mpro
  IC50: 104 nM
[1]
  CC50 at 5 days: > 10000 nM

## CC(C)(C)NC(=O)C(=O)[C@H](C[C@@H]1CCNC1=O)NC(=O)[C@@H]1[C@H]2CCC[C@H]2CN1C(=O)[C@@H](NC(=O)C(F)(F)F)C1CCCC1 [Compound 5]
HCoV OC43
  EC50: 368 nM
SARS-COV-2 Mpro
  IC50: 50 nM
[1]
  CC50 at 5 days: > 10000 nM

## CC1([C@H](NC(=O)C(F)(F)F)C(=O)N2C[C@@H]3CCC[C@@H]3[C@H]2C(=O)N[C@@H](C[C@@H]2CCNC2=O)C(=O)C(=O)NC2CCCC2)CCCCC1 [Compound 6]
SARS-COV-2 Mpro
  IC50: 12 nM

## CC(C)(C)[C@H](NC(=O)C(F)(F)F)C(=O)N1C[C@H]2[C@@H]([C@H]1C(=O)N[C@H](C#N)CC1CCNC1=O)C2(C)C (stereo partly shown) [PF-07321332, reference compound]
In vivo; iv, 3 mg/kg
  AUC(0-t): 3.33 µM·h
  Vd: 0.456 L/kg
  clearance: 30.2 mL/min/kg
  half-life: 0.71 h
In vivo; po, 10 mg/kg
  AUC(0-t): 3.58 µM·h
  Cmax: 2720 nM
  Tmax: 0.292 h
  bioavailability: 32.7%
  half-life: 1.1 h
